Assay results as given in US4490388A, “Amidine compound and anticomplement agent comprising same” (Torii & Co., Ltd., priority 1981, dated 1984).
Read-outs that look alike come from different tables or passages of the source.

Experiments:
[1] = test system: complement; assay: Inhibition of complement mediated hemolysis; format: cell-based; settings: read-out: Inhibition of complement mediated hemolysis (%)
Procedure: The complement mediated hemolysis is widely used as a means to determine the titration of complement. The principle of this method is based on the fact that hemolysis is caused by the activation of complement, when the latter is added to a complex (immune complex) of erythrocytes and the autibody thereof. The degree of hemolysis varies in proportion to the amount of complement added. Therefore, when a known amount of complement admixed with a C1 esterase inhibitor is used, the hemolysis must be suppressed in proportion to the inhibitory activity.
The anti-C1 esterase (C1r, C1s) activity was determined according to the method of Okamura et al. [K. Okamura, M. Muramatsu and B. Fujii, Biochem. Biophys. […] The inhibition of complement mediated hemolysis was determined according to the method of Baker et al. [B. R. Baker and E. H. Erickson, J. Med. Chem., 12, 408-414 (1969)].

[2] = target: Plasmin (Homo sapiens, UniProt P00747); assay: Anti-plasmin activity (hydrolysis of TAME); format: biochemical; settings: molar concentration inhibiting 50% of TAME hydrolysis; read-out: id50, Plasmin
Sequence of Plasmin (P00747 581-810 limits assumed): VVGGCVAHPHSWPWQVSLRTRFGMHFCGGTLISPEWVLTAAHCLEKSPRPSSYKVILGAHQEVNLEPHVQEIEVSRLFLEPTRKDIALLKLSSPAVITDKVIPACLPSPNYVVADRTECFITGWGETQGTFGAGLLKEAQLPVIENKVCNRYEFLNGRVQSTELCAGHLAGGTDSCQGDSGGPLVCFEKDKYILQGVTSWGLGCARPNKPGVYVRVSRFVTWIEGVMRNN
Sequence of Plasmin (P00747 97-580 partner limits assumed): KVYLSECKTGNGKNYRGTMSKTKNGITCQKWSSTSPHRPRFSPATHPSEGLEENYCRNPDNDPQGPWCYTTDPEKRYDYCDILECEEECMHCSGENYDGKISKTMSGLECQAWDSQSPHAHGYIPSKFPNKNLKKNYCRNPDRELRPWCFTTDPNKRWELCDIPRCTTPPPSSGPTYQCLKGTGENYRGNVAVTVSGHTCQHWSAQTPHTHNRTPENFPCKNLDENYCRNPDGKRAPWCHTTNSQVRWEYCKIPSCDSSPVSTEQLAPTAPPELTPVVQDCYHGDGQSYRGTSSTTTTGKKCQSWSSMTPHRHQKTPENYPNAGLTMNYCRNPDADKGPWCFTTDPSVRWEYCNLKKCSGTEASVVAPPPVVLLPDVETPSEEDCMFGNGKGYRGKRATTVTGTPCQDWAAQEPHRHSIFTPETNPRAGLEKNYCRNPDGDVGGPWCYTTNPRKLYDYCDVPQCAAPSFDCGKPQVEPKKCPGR
Procedure: (§1) The anti-trypsin, anti-plasmin, anti-kallikrein and anti-thrombin activities were determined according to the method of Muramatsu et al. [M. Muramatsu, T. Onishi, S. Makino, Y. Hayashi and S. Fujii, J. of Biochem., 58, 214 (1965)]. The data summarized in Table 1 are expressed in terms of molar concentration (id50) of the test compound which inhibits 50% of the activity of each enzyme to hydrolyze TAME (tosylarginine methyl ester). The compound No. corresponds to the compound number shown in Examples.

[3] = target: T1, Trypsin (Bos taurus, UniProt P00760); assay: Anti-trypsin activity (hydrolysis of TAME); format: biochemical; settings: molar concentration inhibiting 50% of TAME hydrolysis; read-out: id50, Trypsin
T1 sequence (P00760 24-246): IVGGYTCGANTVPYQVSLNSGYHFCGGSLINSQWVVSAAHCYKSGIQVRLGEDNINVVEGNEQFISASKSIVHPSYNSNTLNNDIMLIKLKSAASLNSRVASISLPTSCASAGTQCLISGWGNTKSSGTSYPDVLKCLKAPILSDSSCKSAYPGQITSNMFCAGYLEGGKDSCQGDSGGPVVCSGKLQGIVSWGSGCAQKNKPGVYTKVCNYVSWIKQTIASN
Procedure: as §1

[4] = target: T2, C1r (Homo sapiens, UniProt P00736); assay: Anti-C1 esterase activity, C1r (hydrolysis of AAME); format: biochemical; settings: for inhibition at 10 µM: at 1×10^-5 M, read-out: Anti-C1 activity, C1r percent inhibition; for IC50: molar concentration inhibiting 50% of AAME hydrolysis, read-out: Anti-C1 activity, C1r id50
T2 sequence (P00736 464-705 limits assumed): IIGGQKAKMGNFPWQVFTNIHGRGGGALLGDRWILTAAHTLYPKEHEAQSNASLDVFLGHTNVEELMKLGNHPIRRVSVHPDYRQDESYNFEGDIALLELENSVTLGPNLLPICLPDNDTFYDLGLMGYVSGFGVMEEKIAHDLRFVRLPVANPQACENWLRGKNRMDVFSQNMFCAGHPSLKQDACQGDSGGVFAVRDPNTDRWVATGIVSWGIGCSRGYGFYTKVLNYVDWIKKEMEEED
T2 sequence (P00736 18-463 partner limits assumed): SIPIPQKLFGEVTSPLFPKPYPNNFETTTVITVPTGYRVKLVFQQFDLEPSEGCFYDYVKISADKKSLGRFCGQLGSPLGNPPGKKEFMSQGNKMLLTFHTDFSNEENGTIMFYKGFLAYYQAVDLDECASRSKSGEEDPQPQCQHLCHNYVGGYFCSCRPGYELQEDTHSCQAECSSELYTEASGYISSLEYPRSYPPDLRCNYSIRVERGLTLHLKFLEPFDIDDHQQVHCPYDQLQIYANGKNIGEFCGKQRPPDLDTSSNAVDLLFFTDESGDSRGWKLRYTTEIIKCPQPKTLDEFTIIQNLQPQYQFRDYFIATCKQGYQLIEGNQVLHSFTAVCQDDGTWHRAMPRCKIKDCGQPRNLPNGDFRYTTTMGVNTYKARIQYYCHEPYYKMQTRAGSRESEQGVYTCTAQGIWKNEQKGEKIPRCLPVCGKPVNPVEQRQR
Procedure: The anti-C1 esterase (C1r, C1s) activity was determined according to the method of Okamura et al. [K. Okamura, M. Muramatsu and B. Fujii, Biochem. Biophys. […] The figures in Table 2 have the following meanings:
C1r: Molar concentration of the test compound which inhibits 50% of the ability of C1r to hydrolyse AAME (acetylarginin methyl ester) (id50).

[5] = target: Thrombin (Bos taurus, UniProt P00735); assay: Anti-thrombin activity (hydrolysis of TAME); format: biochemical
Procedure: as §1

Row | Compound | inhibition at 10 µM ([1]; 1 × 10^-5 M) [%] | inhibition at 1 µM ([1]; 1 × 10^-6 M) [%] | inhibition at 0.1 µM [1] [%] | inhibition at 100 µM [1] [%] | inhibition at 100 µM ([1]; 1 × 10^-4 M) [%] | inhibition at 0.1 µM ([1]; 1 × 10^-7 M) [%] | inhibition at 1 µM [1] [%] | IC50 [2] [µM] | IC50 [3] [µM] | inhibition at 10 µM [4] [%] | IC50 [5] [µM] | IC50 [4] [µM] | inhibition at 10 µM [1] [%]
1 | CC(=O)Oc1ccc(C=CC(=N)N)cc1 [Compound 1, 4-(β-amidinoethenyl)phenyl acetate] | 71 | 64 | 10 | 99 | – | – | – | – | – | – | – | – | –
2 | CC(C)CC(=O)Oc1ccc(C=CC(=N)N)cc1 [Compound 2, 4-(β-amidinoethenyl)phenyl isovalerate] | 90 | – | – | – | 99 | 8 | 30 | – | – | – | – | – | –
3 | CCCCCCC(=O)Oc1ccc(C=CC(=N)N)cc1 [Compound 3] | 75 | – | – | 98 | – | 0 | – | > 10 | > 10 | 28 | > 10 | – | –
4 | CC=CC=CC(=O)Oc1ccc(C=CC(=N)N)cc1 [Compound 4] | 99 | – | 12 | 100 | – | – | 86 | 0.9 | 0.4 | – | – | 5 | –
5 | N=C(N)C=Cc1ccc(OC(=O)C2CC2)cc1 [Compound 5, 4-(β-amidinoethenyl)phenyl cyclopropanecarboxylate] | 100 | 81 | – | – | 100 | 16 | – | 2 | 6 | – | – | 2 | –
6 | N=C(N)C=Cc1ccc(OC(=O)C2CCCCC2)cc1 [Compound 6] | 93 | 14 | – | – | 99 | 0 | – | – | – | – | – | – | –
7 | N=C(N)C=Cc1ccc(OC(=O)CCCCCNC(=O)OCc2ccccc2)cc1 [Compound 7, 4-(β-amidinoethenyl)phenyl 6-benzyloxycarbonylaminocaproate] | 64 | 13 | – | – | 98 | 14 | – | 5 | 7 | 31 | > 10 | – | –
8 | N=C(N)C=Cc1ccc(OC(=O)CCCCCN)cc1 [Compound 8, 4-(β-amidinoethenyl)phenyl 6-aminohexanoate] | – | 9 | – | – | 27 | 0 | – | > 10 | 2 | – | > 10 | > 10 | 15
9 | N=C(N)C=Cc1ccc(OC(=O)CCCCCNC(=N)N)cc1 [Compound 9, 4-(β-amidinoethenyl)phenyl 6-guanidinocaproate] | 72 | – | – | – | 97 | 0 | 6 | > 10 | 0.03 | 28 | > 10 | – | –
10 | N=C(N)C=Cc1ccc(OC(=O)[C@H]2CC[C@H](CN)CC2)cc1 [Compound 10, 4-(β-amidinoethenyl)phenyl trans-4-aminomethylcyclohexanecarboxylate] | 99 | 98 | – | – | 100 | 74 | – | 6 | 6 | 46 | > 10 | – | –
11 | N=C(N)C=Cc1ccc(OC(=O)[C@H]2CC[C@H](CNC(=O)OCc3ccccc3)CC2)cc1 [Compound 11, 4-(β-amidinoethenyl)phenyl trans-4-benzyloxycarbonylaminomethylcyclohexanecarboxylate] | 99 | 82 | 25 | 95 | – | – | – | 0.3 | 5 | – | > 10 | 5 | –
12 | N=C(N)C=Cc1ccc(OC(=O)CCCc2ccccc2)cc1 [Compound 16, 4-(β-amidinoethenyl)phenyl 4-phenylbutyrate] | 34 | 0 | – | 96 | – | 0 | – | – | – | – | – | – | –
13 | N=C(N)C=Cc1ccc(OC(=O)C=Cc2ccccc2)cc1 [Compound 17, 4-(β-amidinoethenyl)phenyl cinnamate] | 97 | – | – | – | 93 | 58 | 83 | – | – | – | – | – | –
14 | Cc1ccccc1C(=O)Oc1ccc(C=CC(=N)N)cc1 [Compound 18] | 38 | 12 | – | – | 91 | 0 | – | – | – | – | – | – | –
15 | Cc1cccc(C(=O)Oc2ccc(C=CC(=N)N)cc2)c1 [Compound 19] | 98 | 65 | 37 | – | 95 | – | – | – | – | – | – | – | –
16 | Cc1ccc(C(=O)Oc2ccc(C=CC(=N)N)cc2)cc1C [Compound 21] | – | 37 | – | – | 87 | 22 | – | – | – | – | – | – | 88
17 | COc1ccc(C(=O)Oc2ccc(C=CC(=N)N)cc2)cc1 [Compound 23] | 99 | 94 | – | – | 98 | 42 | – | – | – | – | – | – | –
18 | COc1ccc(C(=O)Oc2ccc(C=CC(=N)N)cc2)cc1OC [Compound 24] | 20 | 8 | – | – | 76 | 0 | – | – | – | – | – | – | –
19 | COc1ccc(CCC(=O)Oc2ccc(C=CC(=N)N)cc2)cc1 [Compound 25] | 0 | 0 | – | – | 62 | 0 | – | – | – | – | – | – | –
20 | N=C(N)C=Cc1ccc(OC(=O)c2ccc3c(c2)OCO3)cc1 [Compound 27] | 99 | 88 | – | – | 100 | 44 | – | – | – | – | – | – | –
21 | COC(=O)c1ccc(C(=O)Oc2ccc(C=CC(=N)N)cc2)cc1 [Compound 29] | 93 | 57 | – | – | 98 | 25 | – | – | – | – | – | – | –
22 | CC(=O)Nc1ccc(C(=O)Oc2ccc(C=CC(=N)N)cc2)cc1 [Compound 31] | 91 | 65 | – | – | 98 | 25 | – | – | – | – | – | – | –
23 | N=C(N)C=Cc1ccc(OC(=O)c2ccc(CNC(=O)OCc3ccccc3)cc2)cc1 [Compound 33] | – | 29 | – | 92 | – | 7 | – | – | – | – | – | – | 89
24 | CCC(=Cc1ccc(NC(=N)N)cc1)C(=O)Oc1ccc(C=CC(=N)N)cc1 [Compound 36] | – | 8 | – | – | 93 | 0 | – | > 10 | 5 | – | 5 | – | 40
25 | N=C(N)C=Cc1ccc(OC(=O)c2ccc([N+](=O)[O-])cc2)cc1 [Compound 37] | 99 | 95 | – | – | 100 | 94 | – | – | – | – | – | – | –
26 | N=C(N)C=Cc1ccc(OC(=O)CCCc2ccc([N+](=O)[O-])cc2)cc1 [Compound 38] | 76 | 27 | – | – | 98 | 7 | – | – | – | – | – | – | –
27 | N=C(N)C=Cc1ccc(OC(=O)C=Cc2ccccc2Cl)cc1 [Compound 40] | – | 0 | – | – | 15 | 0 | – | – | – | – | – | – | 3
